The source made the active and inactive calls. No rule for the calls is given here.
Tested on: rodent carcinogenicity bioassays, tumor incidence
Test: CCRIS carcinogenicity studies
Method in brief: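 NCI-built, expert-reviewed records of carcinogenicity and related test outcomes (mutagenicity, tumor promotion/inhibition) compiled from published and report sources, historical span 1985-2011, not updated.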

For `COc1cc2c(c3oc(=O)c4c(c13)CCC4=O)[C@@H]1C=CO[C@@H]1O2`, the carcinogen call (Species: FISH, Strain/Sex: COHO SALMON, Route: DIET, Dose: 0, 40 PPB IN DIET FOR 4 WK (STUDY DURATION: 12 MO)) was “inactive; negative”, the carcinogen call (Species: FISH, Strain/Sex: COHO SALMON, Route: DIET, Dose: 0, 5000 PPB FOR 3 WK (STUDY DURATION: 12 MO)) was “inactive; negative” and the carcinogen call (Species: FISH, Strain/Sex: COHO SALMON, Route: IMMERSION, Dose: 0, 0.5 PPM AQUEOUS SOLUTION FOR 30 MIN EXPOSURE OF EMBRYOS 4-5 D BEFORE HATCHING (STUDY DURATION: 12 MO)) was “inactive; negative”. The carcinogen call (Species: FISH, Strain/Sex: MT. SHASTA RAINBOW TROUT, Route: IMMERSION, Dose: 0, 0.5 PPM AQUEOUS SOLUTION FOR 15 MIN EXPOSURE OF EMBRYOS 4-5 D BEFORE HATCHING (STUDY DURATION: 12 MO), Tumor Site: Type of Lesion: LIVER: HEPATOCELLULAR CARCINOMA) was “active; positive”, the carcinogen call (Species: FISH, Strain/Sex: MT. SHASTA RAINBOW TROUT, Route: ORAL, Dose: 0, 20 PPB IN DIET FOR 4 WK (STUDY DURATION: 12 MO), Tumor Site: Type of Lesion: LIVER: HEPATOCELLULAR CARCINOMA) was “active; positive” and the carcinogen call (Species: FISH, Strain/Sex: RAINBOW TROUT, Route: ORAL, Dose: 0, 1.5, 7.5 UG/DIET FOR 5.5 MO (STUDY DURATION: 5.5 MO), Dose: 0, 1.5, 7.5 UG/DIET FOR 5.5 MO (STUDY DURATION: 5.5 MO), Tumor Site: Type of Lesion: LIVER: HEPATOMA) was “active; positive”. For the same molecule, the carcinogen call (Species: FISH, Strain/Sex: RAINBOW, Route: DIET, Dose: 0, 6 PPB FOR UP TO 1 YR, Tumor Site: Type of Lesion: LIVER: HEPATOCELLULAR CARCINOMA) was “active; positive”, the carcinogen call (Species: FISH, Strain/Sex: SHASTA RAINBOW TROUT/MALE, FEMALE, Route: IMMERSION, Dose: 0, 0.01, 0.025, 0.05, 0.1, 0.25, 0.5 PPM SOLUTION IN WATER FOR 1 HR EXPOSURE OF EMBRYOS (STUDY DURATION: 13 MO), Dose: 0, 0.01, 0.025, 0.05, 0.1, 0.25, 0.5 PPM SOLUTION IN WATER FOR 1 HR EXPOSURE OF EMBRYOS (STUDY DURATION: 13 MO), Tumor Site: Type of Lesion: LIVER: TUMOR) was “active; positive” and the carcinogen call (Species: FISH, Strain/Sex: SHASTA RAINBOW TROUT/MALE, FEMALE, Route: ORAL, Dose: 0, 4, 8, 16, 32, 64 PPB IN DIET FOR 2 WK FOLLOWED BY CONTROL DIET FOR THE DURATION OF STUDY (STUDY DURATION: 9 MO), Dose: 0, 4, 8, 16, 32, 64 PPB IN DIET FOR 2 WK FOLLOWED BY CONTROL DIET FOR THE DURATION OF STUDY (STUDY DURATION: 9 MO), Tumor Site: Type of Lesion: LIVER: TUMOR) was “active; positive”. For the same molecule, the carcinogen call (Species: HUMAN, Route: ORAL, Tumor Site: Type of Lesion: LIVER) was “active; positive”, the carcinogen call (Species: MONKEY, Strain/Sex: AFRICAN GREEN/MALE,FEMALE, Route: INTRAPERITONEAL, Dose: 99-134 MG TOTAL DOSE, 1/WK FOR AT LEAST 2 YR, Tumor Site: Type of Lesion: LIVER: CARCINOMA, HEMANGIOENDOTHELIAL SARCOMA, GALL BLADDER (BILE DUCT): ADENOCARCINOMA, PANCREAS: HEMANGIOENDOTHELIAL S, Tumor Site: Type of Lesion: LIVER: CARCINOMA, HEMANGIOENDOTHELIAL SARCOMA, GALL BLADDER (BILE DUCT): ADENOCARCINOMA, PANCREAS: HEMANGIOENDOTHELIAL S) was “active; positive” and the carcinogen call (Species: MONKEY, Strain/Sex: AFRICAN GREEN/MALE,FEMALE, Route: ORAL, Dose: 99-134 MG TOTAL DOSE, 1/WK FOR AT LEAST 2 YR, Tumor Site: Type of Lesion: LIVER: CARCINOMA, HEMANGIOENDOTHELIAL SARCOMA, GALL BLADDER (BILE DUCT): ADENOCARCINOMA, PANCREAS: HEMANGIOENDOTHELIAL S, Tumor Site: Type of Lesion: LIVER: CARCINOMA, HEMANGIOENDOTHELIAL SARCOMA, GALL BLADDER (BILE DUCT): ADENOCARCINOMA, PANCREAS: HEMANGIOENDOTHELIAL S) was “active; positive”. The carcinogen call (Species: MONKEY, Strain/Sex: CYNOMOLGUS/MALE,FEMALE, Route: INTRAPERITONEAL, Dose: 99-134 MG TOTAL DOSE, 1/WK FOR AT LEAST 2 YR, Tumor Site: Type of Lesion: LIVER: CARCINOMA, HEMANGIOENDOTHELIAL SARCOMA, GALL BLADDER (BILE DUCT): ADENOCARCINOMA, PANCREAS: HEMANGIOENDOTHELIAL S, Tumor Site: Type of Lesion: LIVER: CARCINOMA, HEMANGIOENDOTHELIAL SARCOMA, GALL BLADDER (BILE DUCT): ADENOCARCINOMA, PANCREAS: HEMANGIOENDOTHELIAL S) was “active; positive”, the carcinogen call (Species: MONKEY, Strain/Sex: CYNOMOLGUS/MALE,FEMALE, Route: ORAL, Dose: 99-134 MG TOTAL DOSE, 1/WK FOR AT LEAST 2 YR, Tumor Site: Type of Lesion: LIVER: CARCINOMA, HEMANGIOENDOTHELIAL SARCOMA, GALL BLADDER (BILE DUCT): ADENOCARCINOMA, PANCREAS: HEMANGIOENDOTHELIAL S, Tumor Site: Type of Lesion: LIVER: CARCINOMA, HEMANGIOENDOTHELIAL SARCOMA, GALL BLADDER (BILE DUCT): ADENOCARCINOMA, PANCREAS: HEMANGIOENDOTHELIAL S) was “active; positive” and the carcinogen call (Species: MONKEY, Strain/Sex: RHESUS/MALE,FEMALE, Route: INTRAPERITONEAL, Dose: 99-134 MG TOTAL DOSE, 1/WK FOR AT LEAST 2 YR, Tumor Site: Type of Lesion: LIVER: CARCINOMA, HEMANGIOENDOTHELIAL SARCOMA, GALL BLADDER (BILE DUCT): ADENOCARCINOMA, PANCREAS: HEMANGIOENDOTHELIAL S, Tumor Site: Type of Lesion: LIVER: CARCINOMA, HEMANGIOENDOTHELIAL SARCOMA, GALL BLADDER (BILE DUCT): ADENOCARCINOMA, PANCREAS: HEMANGIOENDOTHELIAL S) was “active; positive”. The carcinogen call (Species: MONKEY, Strain/Sex: RHESUS/MALE,FEMALE, Route: ORAL, Dose: 99-134 MG TOTAL DOSE, 1/WK FOR AT LEAST 2 YR, Tumor Site: Type of Lesion: LIVER: CARCINOMA, HEMANGIOENDOTHELIAL SARCOMA, GALL BLADDER (BILE DUCT): ADENOCARCINOMA, PANCREAS: HEMANGIOENDOTHELIAL S, Tumor Site: Type of Lesion: LIVER: CARCINOMA, HEMANGIOENDOTHELIAL SARCOMA, GALL BLADDER (BILE DUCT): ADENOCARCINOMA, PANCREAS: HEMANGIOENDOTHELIAL S) was “active; positive”, the carcinogen call (Species: MOUSE, Route: INTRAPERITONEAL, Tumor Site: Type of Lesion: LIVER) was “active; positive” and the carcinogen call (Species: MOUSE, Route: INTRAPERITONEAL, Tumor Site: Type of Lesion: LUNG) was “active; positive”. The carcinogen call (Species: MOUSE, Strain/Sex: DDK/FEMALE, Route: TRANSPLACENTAL, Dose: 0, 20, 40, 80, 120 MG/KG ADMINISTERED INTRAPERITONEALLY TO MOTHERS ON DAY 14 OF GESTATION AND OFFSPRING OBSERVED FOR 12, Dose: 0, 20, 40, 80, 120 MG/KG ADMINISTERED INTRAPERITONEALLY TO MOTHERS ON DAY 14 OF GESTATION AND OFFSPRING OBSERVED FOR 12) was “inactive; negative”, the carcinogen call (Species: MOUSE, Strain/Sex: DDK/FEMALE, Route: TRANSPLACENTAL, Dose: 0, 40 MG/KG ADMINISTERED INTRAPERITONEALLY TO MOTHERS ON DAY 14 OF GESTATION AND OFFSPRING OBSERVED FOR 6 MO AFTER BIRTH) was “inactive; negative” and the carcinogen call (Species: MOUSE, Strain/Sex: DDK/MALE, Route: TRANSPLACENTAL, Dose: 0, 20, 40, 80, 120 MG/KG ADMINISTERED INTRAPERITONEALLY TO MOTHERS ON DAY 14 OF GESTATION AND OFFSPRING OBSERVED FOR 12, Dose: 0, 20, 40, 80, 120 MG/KG ADMINISTERED INTRAPERITONEALLY TO MOTHERS ON DAY 14 OF GESTATION AND OFFSPRING OBSERVED FOR 12, Tumor Site: Type of Lesion: LIVER: TUMOR) was “active; positive”. The carcinogen call (Species: MOUSE, Strain/Sex: DDK/MALE, Route: TRANSPLACENTAL, Dose: 0, 40 MG/KG ADMINISTERED INTRAPERITONEALLY TO MOTHERS ON DAY 14 OF GESTATION AND OFFSPRING OBSERVED FOR 6 MO AFTER BIRTH, Tumor Site: Type of Lesion: LIVER: TUMOR) was “active; positive”, the carcinogen call (Species: RAT, Route: INTRAPERITONEAL, ORAL, Tumor Site: Type of Lesion: LIVER) was “active; positive” and the carcinogen call (Species: RAT, Strain/Sex: F344/MALE, Route: ORAL, Dose: 0, 50 PPB IN AGAR BASED SEMISYNTHETIC DIET FOR STUDY DURATION (STUDY DURATION: 17 MO), Tumor Site: Type of Lesion: LIVER: HEPATOCELLULAR CARCINOMA) was “active; positive”. For the same molecule, the carcinogen call (Species: RAT, Strain/Sex: F344/MALE, Route: ORAL, Dose: 50 PPB IN DIET 2/WK FOR 12 MO, Tumor Site: Type of Lesion: LIVER: HEPATOCELLULAR CARCINOMA) was “active; positive”, the carcinogen call (Species: RAT, Strain/Sex: SPRAGUE-DAWLEY, Route: DIET, Dose: 0, 25 UG/D FOR 15 DOSES, Tumor Site: Type of Lesion: LIVER: HEPATOCELLULAR CARCINOMA) was “active; positive” and the carcinogen call (Species: TROUT, Strain/Sex: MT. SHASTA RAINBOW, Route: ORAL, Dose: 4 PPB IN DIET FOR 12 MO, Tumor Site: Type of Lesion: LIVER: HEPATOMA) was “active; positive”. For the same molecule, the carcinogen call (Species: TROUT, Strain/Sex: MT. SHASTA RAINBOW, Route: ORAL, Dose: 20 PPB IN DIET FOR 12 MO, Tumor Site: Type of Lesion: LIVER: HEPATOCELLULAR CARCINOMA) was “active; positive”.

Source: PubChem BioAssay AID1259411 (Chemical Carcinogenesis Research Information System (CCRIS), 2018)
